Read-outs that look alike come from different tables or passages of the source. Ends that are not written are not given here.
B1: non-biotinylated, non-phosphorylated synthetic ASARM-peptide (MEPE residues 507-525) used for ELISA standard curves (peptide)
peptide: RDDSSESSDSGSSSESDGD
modifications: not fully specified

What was measured:
[1] = system: Na+ dependent phosphate co-transport in primary human renal proximal tubule epithelial cells (RPTEC); assay: 33PO4 uptake scintillation proximity assay (SPA) in RPTEC; format: cell-based
Procedure: (§1) Measurement of ^33PO4 uptake and ^14C-α-methyl D-glucose uptake. A novel technique, scintillation proximity assay (SPA), was used to measure ^33PO4 uptake in-vitro. Human renal proximal-tubule primary cells (RPTEC) were purchased from Clonetics-Biowhittaker (Walkersville, Md.) (cat. no. CC2553) and were cultured and subcultured using the manufacturers recommended protocols, methods, buffers and media (cat. nos. CC3190, CC5034). Also a human renal cell-line (Hu-CL8) was cultured as previously described (Rowe et al. Candidate 56 and 58 kDa protein(s) responsible for mediating the renal defects in oncogenic hypophosphatemic osteomalacia. Bone 18(2):159-169, 1996). For ^33PO4-uptake measurement cells were grown in REBM media supplemented with 5% fetal calf serum (REBM-FCS) to 80% confluence (Clonetics-Biowhitaker, Walkersville, Md.: cat. nos. CC2553, CC3190 and CC5034) and seeded into 96 well (3000 cells/well) cytostar-T scintillating-microplates (Amersham-Pharmacia Biotech, Piscataway, N.J.: cat. no. RPNQ 0162). Cells were then cultured in 200 μL of REBM-FCS media for 24 h. Media was then replaced with serum free media (REBM) and the cells incubated for a further 3-4 h with Hu-MEPE, PTH (1-34) or media control respectively in REBM media. The concentrations of PTH (1-34) and Hu-MEPE were […] and each experimental dose was repeated eight times for statistical analysis. Following incubation media was removed and replaced with either phosphate uptake buffer (PUB) consisting of 150 mM NaCl/1 mM Cacl2/1.8 mM MgSO4/10 mM HEPE pH 7.0/0.1 mM phosphate buffer pH 7.0 and 3 uCi mL^−1 33P as orthophosphoric acid (18 MBq/mL or 5775.7 Gbq/mg stock solution Perkin Elmer, Wellesley, Mass.: cat. no. NEZ080). In order to determine the Na-dependent phosphate co-transporter activity a separate set of control cells were incubated with the same buffer but with choline chloride (150 mM) substituted for NaCl (CHUB buffer). After 10 min at 37° C. the reaction was terminated by removing the PUB and CHUB buffers and replacing with STOP buffer (CHUB buffer without radioisotope). The cytostar scintillation plates were then directly assayed for counts (CPM) using a Hewlett-Packard (Palo Alto, Calif.) Multiplate Top-counter calibrated for ^33P SPA assay. Due to the unique design of the 96 well cytostar-plate radioactive decay in solution is not detected by the counter. In contrast, radioisotope attached to or taken into the cells initiates release of plastic-scintillant photons that are detected by the top-counter photo-multiplier tube. Thus, no washes are required and direct CPM can be counted in living cells. Following CPM determination the buffers were removed from the living cells and fresh media supplemented with cell-titre-96 (Promega-Biotech, Madison, Wis.: cat. no. G5421) cell-number detection media. Cells were then further incubated at 37° C. for 4 h. Conversion of a tetrazolium salt to a colored formazan product by living cells was then measured at 490 nm using a 96 well multi-well spectrophotometer with KC-4 software (absorbance at 490 nm is directly proportional to the number of living cells). Na-dependent ^33P uptake was then calculated by subtracting background counts and the choline chloride non Na-dependent ^33P uptake and results expressed as ^33PO4 femtomoles/10^4-cells/6 min. […]

[2] = system: Male ICR-Swiss mice; assay: Intraperitoneal administration of Hu-MEPE and PTH (1-34) into mice, serum and urine assays; format: in vivo
Procedure: Intraperitoneal administration of Hu-MEPE and PTH (1-34) into mice. Male ICR-Swiss mice were used as recipients for intraperitoneal administration (100 μl) of 0.1% phosphate-buffered saline/0.1% bovine serum albumin (vehicle) and experimental conditions (Hu-MEPE and PTH 1-34) dissolved in 100 μL of vehicle. Two separate (repeat) experiments were conducted consisting of four groups with 6 and 7 animals per group. The control group was administered with 100 μL of vehicle (Group-1). Group-2 consisted of animals administered with 0.8 μg/injection of parathyroid hormone (PTH 1-34). Group 3 were injected with 0.4 μg/injection of Hu-MEPE and Group-4 with 4 μg/injection of Hu-MEPE. On day one, three bolus injections were given at 0, 3 h, and 6 h. Serum samples were then collected via retro-orbital bleed one hour after the 6 h bolus administration. The next day or 30 hours after the first bolus a fourth bolus (same amount) was given and after 1 h the animals were sacrificed and serum prepared after cardiac exsanguination. The total amounts of PTH and MEPE administered over the 30 h were 80 μg/kg/30 h PTH 1-34, 40 μg/kg/30 h Hu-MEPE (MEPE-40) and 400 μg/kg/30 h Hu-MEPE (MEPE-400). Each group was placed in a separate metabolic cage and urine was collected for the 6-hour period. After the first 6-hour urine collection mice were replaced in thoroughly cleaned metabolic cages for the remaining 24 hours. The second 24-hour urine was collected immediately after the animals were sacrificed. The urine volumes for the second and first collections were measured. Collecting urine samples from large numbers of small mice over the time frame of the experiment was not feasible. Therefore, urine samples from each group (n=7) were pooled and volumes measured via a specially designed collecting duct in the metabolic cage. To ensure reproducibility the experiment was repeated twice (the same changes occurred). To calculate the fractional excretion of phosphate (FEP) the following equation was used: 100−(100×(1−(A/B))) where A=(urine phosphorus in mg/dL)×(serum creatinine in mg/dL) and B=(urine creatinine in mg/dL)×(serum phosphorus in mg/dL). To calculate renal phosphorus clearance (RPC) in mL/minute following computation was used: (urine phosphorus in mg/dL)×(urinary volume in mL)/((serum phosphorus in mg/dL)×(time of collection in minutes)). The phosphate excretion index (PEI) was calculated using the same method described by Shimada et al. (Cloning and characterization of FGF23 as a causative factor of tumor-induced osteomalacia, Proc Natl Acad Sci USA 98:6500-6505, 2001) using the following formula: ((urinary concentration of phosphorus in mg/dL)/(serum concentration of phosphorus in mg/dL))/(total urinary creatinine in mg).
Serum and urine assays. Serum and urine assays for phosphate, calcium, chloride, potassium, creatinine, glucose and alkaline phosphatase were accomplished using 96 well format KC4-spectrophotometer multiplate kinetic/end-point analyses using routine methods and diagnostic-kits Sigma-Diagnostics). Serum 1,25-dihydroxy vitamin-D3 levels were estimated using the method of Reinhardt, et al. (A microassay for 1,25-dihydroxyvitamin D not requiring high performance liquid chromatography: application to clinical studies, J Clin Endocrinol Metab 58:91-98, 1984). Analysis of data for fractional excretion of phosphate (FEP) was carried out following the same method described previously by Shimada et al. (Mutant FGF-23 responsible for autosomal dominant hypophosphatemic rickets is resistant to proteolytic cleavage and causes hypophosphatemia in vivo, Endocrinology 143:3179-82, 2002) for FGF23 bolus administration studies and by Nesbitt et al. (Crosstransplantation of kidneys in normal and Hyp mice: Evidence that the Hyp mouse phenotype is unrelated to an intrinsic renal defect, J Clin Invest 89:1453-59, 1992) for renal cross-transplantation experiments in Hyp mice.
Statistical methods. […]

[3] = system: Na+ dependent phosphate co-transport in human renal proximal tubule cell-line (Hu-CL8); assay: 33PO4 uptake scintillation proximity assay (SPA) in Hu-CL8; format: cell-based; details: Hu-CL8
Procedure: as §1, with “After 10 min at 37° C. the reaction was terminated by removing the PUB and CHUB buffers and replacing with STOP buffer (CHUB buffer without radioisotope). The cytostar scintillation plates were then directly assayed for counts (CPM) using a Hewlett-Packard (Palo Alto, Calif.) Multiplate Top-counter calibrated for ^33P SPA assay.” left out, “Following CPM determination the buffers were removed from the living cells and fresh media supplemented with cell-titre-96 (Promega-Biotech, Madison, Wis.: cat. no. G5421) cell-number detection media. Cells were then further incubated at 37° C. for 4 h.” left out

[4] = target: rabbit polyclonal antibodies raised against ASARM-peptide (SEQ ID NO. 5); assay: competitive chemiluminescent ELISA: anti-ASARM polyclonal on protein-G plates, 0.5 ng/mL biotinylated ASARM-peptide as competitor, one site binding hyperbola of % quenching
[5] = target: rabbit polyclonal antibodies raised against ASARM-peptide (SEQ ID NO. 5); assay: competitive chemiluminescent ELISA: anti-ASARM polyclonal on protein-G plates, 0.5 ng/mL biotinylated ASARM-peptide as competitor

| Kd [4] | Qmax (quench maximum) [5] | Molecule | inhibition of Na+ dependent phosphate co-transport [1] | inhibition of Na+ dependent phosphate co-transport ([1]; listed as PTH) | fractional excretion of phosphate (FEP) ([2]; 7 h, PTH 80 ug/kg/30 h, vehicle 7.8%) | urine phosphate ([2]; 7 h, PTH 80 ug/kg/30 h i.p., vehicle 31.8) | fractional excretion of phosphate (FEP) ([2]; 31 h, PTH 80 ug/kg/30 h, vehicle 28.7%) | serum alkaline phosphatase ([2]; 31 h, PTH 80 ug/kg/30 h, vehicle 65.06) | serum 1,25-dihydroxy vitamin-D3 ([2]; 31 h, PTH 1-34 80 ug/kg/30 h, pooled, vehicle 25.2) | serum phosphate ([2]; 31 hours, PTH 80 ug/kg/30 h i.p., vehicle 11.94) | urine phosphate ([2]; 31 h second urine, PTH 80 ug/kg/30 h, vehicle 175.9) | serum phosphate vs vehicle ([2]; after 7 hours, i.p., PTH and MEPE animals) | serum calcium vs vehicle ([2]; after 7 hours, PTH 80 ug/kg/30 h, low Hu-MEPE dose) | urine calcium vs Hu-MEPE and vehicle ([2]; after 31 hours, PTH) | inhibition of Na+ dependent phosphate co-transport [3] |
| --- | --- | --- | --- | --- | --- | --- | --- | --- | --- | --- | --- | --- | --- | --- | --- |
|  |  | PTH (1-34): parathyroid hormone (PTH 1-34), used as a positive control (SVSEIQLMHNLGKHLNSMERVEWLRKKLQDVHNF; Parathyroid hormone; UniProt P01270 32-65, looked up, fragment) [reference compound] | Dose dependent inhibition | dose-dependent inhibition | 27.4% | 61.6 mg/dL | 53.3% | 46.3 U/L | 61.2 pg/mL | 8.32 mg/dL | 238.3 mg/dL | no significant differences | significantly elevated | significantly hypocalciuric | Dose dependent inhibition |
| 7.5 ng/mL | 98.7% | B1 |  |  |  |  |  |  |  |  |  |  |  |  |  |
